Experimental data as given in PMC13586308, “Cell type–selective targeting by heterobifunctional protein binders via in-cell enrichment” (Nature Communications, 2026).
Where two headings read alike, the source gives them in different places.

Experiments:
BRD4^BD2 = target: T1, BRD4^BD2 (Homo sapiens, UniProt O60885); assay: competitive fluorescence polarization assay, BRD4 BD2 -/+ presenter protein; type: binding; conditions: for α BRD4^BD2 (binding cooperativity factor): ratio of binding in absence or presence of FKBP12
T1 construct: to the isolated BD1 and BD2 domains of BRD2, BRD3 and BRD4

FKBP12 [1] = target: T2, FKBP12 (Homo sapiens, UniProt P62942); assay: NanoBRET FKBP12 in intact HEK293 cells; type: cell-based
BRD4^BD1 = target: T3, BRD4^BD1 (Homo sapiens, UniProt O60885); assay: competitive fluorescence polarization assay, BRD4 BD1 -/+ presenter protein; type: binding; conditions: for α BRD4^BD1 (binding cooperativity factor): ratio of binding in absence or presence of FKBP12
T3 construct: to the isolated BD1 and BD2 domains of BRD2, BRD3 and BRD4

FKBP12 [2] = target: T2, FKBP12; assay: competitive fluorescence polarization assay, binding to FKBP12; conditions: competitive FP assay
BRD4 = target: T4, BRD4 (Homo sapiens, UniProt O60885); assay: NanoBRET BRD4, transient BRD4-NanoLuc in HEK293T cells; type: cell-based; conditions: intact HEK293 cells
T4 construct: full-length BRD4 fused to NanoLuc at N terminus; expressed in transfected cells; host or cells: HEK293T
Procedure: The NanoBRET assay was performed as described previously[26],[39]. To study BRD4 engagement, we employed two models: cells stably expressing BRD4-NanoLuc and cells with transient BRD4-NanoLuc expression. For stable cell lines, the coding sequence of human BRD4 (Isoform B) was fused in-frame to NanoLuc luciferase under the control of the human ubiquitin C (UbC) promoter, with left and right homology arms targeting the AAVS1 locus in intron 1 of the PPP1R12C gene to facilitate genomic integration. PC3 prostate cancer cells were transfected with this construct and vectors expressing Cas9 and an sgRNA targeting the AAVS1 locus using Lipofectamine 3000 (Invitrogen). Successful integrands were selected with blasticidin. Expression of the fusion protein was confirmed by western blot. For transient experiments, full-length BRD4 fused to NanoLuc at N terminus, was cloned into an expression plasmid and transfected into HEK293T cells using FuGENE HD (Promega, E2312), with protein expression allowed for 20 h. Serially diluted inhibitors and BRD Tracer-02 (Promega, TracerDB ID: T000022) at the Tracer KD concentration (from TracerDB)[40] were dispensed into white 384-well plates (Greiner 781207) using an ECHO 550 acoustic dispenser (Labcyte). The cells were trypsinized, resuspended in Opti-MEM without phenol red (Life Technologies), and seeded at 2 × 10^5 cells/mL. After equilibration for 2 h at 37 °C/5% CO₂ following compound treatment, the NanoBRET® NanoGlo Substrate + Extracellular NanoLuc® Inhibitor (Promega, N2162) was added according to the manufacturer’s protocol, and filtered luminescence was measured on a PHERAstar plate reader (BMG Labtech) using a donor (450 nm BP) and acceptor (610 nm LP) filter pair. Competitive displacement data were analyzed using GraphPad Prism 9 with a normalized 3-parameter curve fit: Y = 100/(1 + 10^(X − log IC₅₀)). For BRET measurements after FKBP12 knockdown in stably expressing BRD4 Nano-Luc reporter cell line, 10 nL/per well of the FKBP12 PROTAC was pipetted to each well using Labcyte to achieve the final concentration of 200 nM and the plated cells were incubated over-night at 37 °C and 5% CO2. BRET measurements were performed as outlined above.

[3] = absence of FKBP12, 2 nM JQ1-FL tracer, read-out: Binding to BRD4^BD2 - FKBP12 Kd
[4] = presence of 15 µM FKBP12, read-out: Binding to BRD4^BD2 + FKBP12 Kd (converted)
[5] = absence of FKBP12, 2 nM JQ1-FL tracer, read-out: Binding to BRD4^BD1 - FKBP12 Kd
[6] = presence of 15 µM FKBP12, read-out: Binding to BRD4^BD1 + FKBP12 Kd (converted)

T2 sequence (P62942 whole entry): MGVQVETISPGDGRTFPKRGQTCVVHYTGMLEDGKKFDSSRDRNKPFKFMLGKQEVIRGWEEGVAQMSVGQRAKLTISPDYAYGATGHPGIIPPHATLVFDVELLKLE

| SMILES | Kd (BRD4^BD2; [3]) | Kd (BRD4^BD2; [4]) | IC50 (FKBP12 [1]) | Kd (BRD4^BD1; [5]) | Kd (BRD4^BD1; [6]) | Kd (FKBP12 [2]) | IC50 (BRD4) | α BRD4^BD2 (binding cooperativity factor) (BRD4^BD2) | α BRD4^BD1 (binding cooperativity factor) (BRD4^BD1) | nanoBRET BRD4 IC50 (BRD4) |
| --- | --- | --- | --- | --- | --- | --- | --- | --- | --- | --- |
| C=C[C@H]1CN(Cc2ccccn2)C(=O)[C@@H]2CCC[C@H]1N2S(=O)(=O)c1ccc(-c2cn(CCOCCOCCNC(=O)C[C@@H]3N=C(c4ccc(Cl)cc4)c4c(sc(C)c4C)-n4c(C)nnc43)nn2)c(Cl)c1 [a2h] | 46 ± 10 nM | 1300 ± 200 nM | 170 nM | 210 ± 18 nM | 2400 ± 200 nM | 2.4 nM | 300 nM | – | – | – |
| C=CC1CN(Cc2cn(CCOCCOCCNC(=O)CC3N=C(c4ccc(Cl)cc4)c4c(sc(C)c4C)-n4c(C)nnc43)nn2)C(=O)C2CCCC1N2S(=O)(=O)c1cc(Cl)cc(Cl)c1 (stereo not drawn) [a2i] | 140 ± 30 nM | 960 ± 120 nM | 180 nM | 330 ± 40 nM | 290 ± 30 nM | 8.7 nM | 790 nM | 0.1 | 1.1 | – |
| Cc1sc2c(c1C)C(c1ccc(Cl)cc1)=NC(CC(=O)N1CCN(CCn3cc(COCC4CN(Cc5ccccn5)C(=O)C5CCCC4N5S(=O)(=O)c4cc(Cl)cc(Cl)c4)nn3)CC1)c1nnc(C)n1-2 (stereo not drawn) [a4d] | – | – | 89 nM | 500 ± 60 nM | 380 ± 50 nM | 1.1 nM | – | 1 | 1.3 | none |
| Cc1sc2c(c1C)C(c1ccc(Cl)cc1)=NC(CC(=O)N1CCN(CCCn3cc(COCC4CN(Cc5ccccn5)C(=O)C5CCCC4N5S(=O)(=O)c4cc(Cl)cc(Cl)c4)nn3)CC1)c1nnc(C)n1-2 (stereo not drawn) [a5d] | – | 600 ± 100 nM | 93 nM | 740 ± 100 nM | 300 ± 50 nM | 1.2 nM | 1080 nM | 1.8 | 2.5 | – |
| Cc1sc2c(c1C)C(c1ccc(Cl)cc1)=NC(CC(=O)N1CCN(CCCCn3cc(COCC4CN(Cc5ccccn5)C(=O)C5CCCC4N5S(=O)(=O)c4cc(Cl)cc(Cl)c4)nn3)CC1)c1nnc(C)n1-2 (stereo not drawn) [a6d] | – | 800 ± 200 nM | 141 nM | 600 ± 80 nM | 400 ± 50 nM | 0.9 nM | 787 nM | 1.8 | 1.5 | – |
| Cc1sc2c(c1C)C(c1ccc(Cl)cc1)=NC(CC(=O)N1CCC(CN3CCC(n4cc(C5CN(Cc6ccccn6)C(=O)C6CCCC5N6S(=O)(=O)c5cc(Cl)cc(Cl)c5)nn4)CC3)CC1)c1nnc(C)n1-2 (stereo not drawn) [a7c] | 700 ± 100 nM | 900 ± 200 nM | 138 nM | 520 ± 80 nM | 180 ± 30 nM | 3.5 nM | 665 nM | 0.8 | 2.9 | – |
| Cc1sc2c(c1C)C(c1ccc(Cl)cc1)=NC(CC(=O)N1CCC(CN3CCC(n4cc(COCC5CN(Cc6ccccn6)C(=O)C6CCCC5N6S(=O)(=O)c5cc(Cl)cc(Cl)c5)nn4)CC3)CC1)c1nnc(C)n1-2 (stereo not drawn) [a7d] | 700 ± 100 nM | 660 ± 90 nM | 209 nM | 680 ± 70 nM | 310 ± 50 nM | 2.3 nM | 1110 nM | 1 | 2.2 | – |
| Cc1sc2c(c1C)C(c1ccc(Cl)cc1)=NC(CC(=O)N1CCC(CN3CCC(Cn4cc(C5CN(Cc6ccccn6)C(=O)C6CCCC5N6S(=O)(=O)c5cc(Cl)cc(Cl)c5)nn4)CC3)CC1)c1nnc(C)n1-2 (stereo not drawn) [a8c] | 190 ± 30 nM | 160 ± 30 nM | 178 nM | 170 ± 20 nM | 150 ± 20 nM | 2.1 nM | 541 nM | 1.2 | 1.1 | – |
| Cc1sc2c(c1C)C(c1ccc(Cl)cc1)=NC(CC(=O)N1CCC(CN3CCC(Cn4cc(COCC5CN(Cc6ccccn6)C(=O)C6CCCC5N6S(=O)(=O)c5cc(Cl)cc(Cl)c5)nn4)CC3)CC1)c1nnc(C)n1-2 (stereo not drawn) [a8d] | 130 ± 30 nM | 120 ± 30 nM | 228 nM | 160 ± 30 nM | 84 ± 16 nM | 1.8 nM | 357 nM | 1 | 1.9 | – |
